A short description of assay [1]: Observed inhibition activity of the compounds against protein phosphatases 1 (PP1).
Assay [2] can be described thus: Observed inhibition activity against protein phosphatase 1 (PP1).
The nature of assay [3]: Inhibition activity against protein phosphatase 1 (PP1), activity taken from literature.

Experimental findings from BindingDB's records for doi:10.1021/jm960873x (University of California, 1997) are described below.

The compound `COC[C@@H]([C@H](O)[C@H](O)C(=O)N[C@H](C)C[C@H](C)c1nc(/C=C/CC2O[C@]3(CC(O)C2C)OC([C@H](C[C@H](O)[C@H](C)[C@H](O)[C@H](C)/C=C(C)/C(C)=C/C=C/C(C)=C\C#N)OC)[C@H](OP(=O)(O)O)C3(C)C)co1)N(C)C` (some centres undefined) [Calyculin C] gave a concentration for half-maximal inhibition (IC50) in assay [1] of 1.5 nM. With `C/C=C1/C(=O)N[C@@H](C(=O)O)[C@H](C)C(=O)N[C@@H](CCCNC(=N)N)C(=O)N[C@@H](/C=C/C(C)=C/[C@H](C)[C@H](Cc2ccccc2)OC)[C@H](C)C(=O)N[C@@H](C(=O)O)CCC(=O)N1C` [(5R,6S,9S,12S,13S,16R)-2-Eth-(Z)-ylidene-9-(3-guanidino-propyl)-12-((1E,3E)-(5S,6S)-6-methoxy-3,5-dimethyl-7-phenyl-hepta-1,3-dienyl)-1,6,13-trimethyl-3,7,10,14,19-pentaoxo-1,4,8,11,15pentaaza-cyclononadecane-5,16-dicarboxylic acid], the figures for the IC50 in assay [2] and in assay [3] were 0.42 nM and 3 nM, respectively.

Consider `CO[C@H]([C@H](O)CC(=O)[C@@H](C)[C@@H](O)CC[C@@H](C)[C@@H]1O[C@]2(CC[C@@H](C)[C@H](CC[C@H](C)C(C)=O)O2)CC[C@@H]1C)[C@H](OC(=O)C[C@@H](O)C1=C(C)C(=O)OC1=O)C(C)C` [TAUTOMYCIN], for which half-maximal inhibition in assay [1] (IC50) required 0.67 nM.

For orientation: IC50 means the concentration at which inhibition is half-maximal. Low values mean inhibition by little substance, high ones a need for much substance.
